Laboratory results taken from paper PMC5561102, “Fusion protein analysis reveals the precise regulation between Hsp70 and Hsp100 during protein disaggregation” (Scientific Reports, 2017).

What was measured:
Experiment in all cases: UV difference spectrum after size exclusion chromatography
Details in all cases: 3 mM ATP, 55 °C 60 min incubation, pH 7.5, 5 mM MgCl2; binding stoichiometry, not an affinity
TDnaK [1] = target: T1, TDnaK (Thermus thermophilus, UniProt Q56235)
T1 construct: gene dnaK; full length, untagged (plasmid pMDK6), expressed in E. coli; C-terminus Asp615

TDnaK [2] = target: T2, TDnaK (Thermus thermophilus, UniProt Q56235, T195A)
T2 construct: gene dnaK; full length, untagged (plasmid pMDK6), expressed in E. coli; C-terminus Asp615

TDnaK [3] = target: T3, TDnaK (Thermus thermophilus, UniProt Q56235, K69A)
T3 construct: gene dnaK; full length, untagged (plasmid pMDK6), expressed in E. coli; C-terminus Asp615
T3 sequence (Q56235 whole entry K69A): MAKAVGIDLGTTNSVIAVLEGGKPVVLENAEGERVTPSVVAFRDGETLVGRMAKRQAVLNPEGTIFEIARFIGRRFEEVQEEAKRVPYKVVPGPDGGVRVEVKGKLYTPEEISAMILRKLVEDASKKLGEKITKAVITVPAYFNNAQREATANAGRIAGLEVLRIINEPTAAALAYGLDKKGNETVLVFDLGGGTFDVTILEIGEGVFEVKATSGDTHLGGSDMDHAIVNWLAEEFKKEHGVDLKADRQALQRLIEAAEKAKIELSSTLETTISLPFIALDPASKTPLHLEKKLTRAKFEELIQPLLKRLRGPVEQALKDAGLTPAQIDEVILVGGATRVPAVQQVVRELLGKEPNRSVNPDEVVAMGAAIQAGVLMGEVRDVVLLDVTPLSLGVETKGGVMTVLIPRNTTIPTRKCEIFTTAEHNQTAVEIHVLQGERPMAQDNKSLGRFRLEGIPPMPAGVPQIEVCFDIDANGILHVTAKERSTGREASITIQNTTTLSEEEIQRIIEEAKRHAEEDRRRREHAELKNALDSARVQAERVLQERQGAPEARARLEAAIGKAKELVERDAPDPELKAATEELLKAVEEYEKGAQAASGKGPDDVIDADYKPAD

T2 sequence (Q56235 whole entry T195A): as the sequence (Q56235 whole entry K69A) above, with A69K, T195A counted along it
T1 sequence (Q56235 whole entry): as the sequence (Q56235 whole entry K69A) above, with A69K counted along it

bound ATP per TDnaK (TDnaK [1]): 0.70 mol/mol
bound ATP per TDnaK (TDnaK [2]): 0.64 mol/mol
bound ATP per TDnaK (TDnaK [3]): 0.89 mol/mol
SMILES: Nc1ncnc2c1ncn2[C@@H]1O[C@H](COP(=O)(O)OP(=O)(O)OP(=O)(O)O)[C@@H](O)[C@H]1O [ATP]
